Measurements published in PubChem BioAssay (NCI).
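Cells were grown in 96-well plates and exposed to each compound for 48 hours at five concentrations; endpoints were interpolated linearly between bracketing concentrations, or set to the highest concentration if not reached. The concentration for 50% growth inhibition is given as GI50. TGI: concentration producing complete growth inhibition.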

Assays:
Test in all cases: growth of human tumour cells (NCI), 48 h
[1] = tested on: KM12 colon
[2] = tested on: HS 578T breast
[3] = tested on: T-47D breast
[4] = tested on: PC-3 prostate
[5] = tested on: OVCAR-4 ovarian
[6] = tested on: CAKI-1 renal
[7] = tested on: CCRF-CEM leukemia

SMILES	GI50 [1]	TGI [1]	GI50 [2]	TGI [2]	GI50 [3]	TGI [3]	GI50 [4]	TGI [4]	GI50 [5]	TGI [5]	GI50 [6]	TGI [6]	GI50 [7]	TGI [7]
COc1nc(C)cc2c(=O)n(-c3ccccc3)n(CCCN3CCN(c4ccc(Cl)cc4)CC3)c(=O)c12	> 50 µM	> 50 µM	27.4 µM	> 50 µM	> 50 µM	> 50 µM	15.3 µM	> 50 µM	17.6 µM	> 50 µM	38.2 µM	> 50 µM	–	–
O=C(C(Br)Br)C(Br)C(Br)c1ccccc1 (stereo not given)	14.2 µM	28.5 µM	43.5 µM	> 100 µM	2.75 µM	9.69 µM	3.67 µM	15.2 µM	–	–	1.78 µM	3.37 µM	0.536 µM	2.66 µM
CCN(CC)CCCCCCCNc1c2ccc(Cl)cc2nc2ccc(OC)cc12	0.649 µM	2.17 µM	1.79 µM	4.39 µM	2.24 µM	4.97 µM	0.843 µM	2.85 µM	0.913 µM	2.9 µM	1.55 µM	4.65 µM	0.619 µM	3.89 µM
O=C(Nc1ccc(Cl)cc1)c1cc2ccccc2cc1O	2.81 µM	> 100 µM	2.68 µM	11.9 µM	1.11 µM	9.49 µM	2.99 µM	> 100 µM	4.41 µM	> 100 µM	–	–	4.65 µM	> 100 µM
CN(C)CCCNC(=O)c1cc(NC(=O)c2cc(NC(=O)c3cc(NC(=O)CCc4c[nH]c5ccccc45)cn3C)cn2C)cn1C	> 100 µM	> 100 µM	0.0701 µM	> 100 µM	–	–	> 100 µM	> 100 µM	88.5 µM	> 100 µM	–	–	> 100 µM	> 100 µM
COc1ccc(/C=C\c2cc(OC)c(OC)c(OC)c2)cc1OCC(=O)Nc1nc2ccc(C(F)(F)F)cc2s1	3.14 µM	11.5 µM	4.18 µM	> 100 µM	4.79 µM	> 100 µM	4.32 µM	> 100 µM	4.66 µM	> 100 µM	3.1 µM	> 100 µM	4.27 µM	> 100 µM
Cc1ccc2c(N)c(C(=O)N[C@H]3CCc4cc(N5CC6CCC(C5)N6)ccc4C3)sc2n1	0.693 µM	3.33 µM	0.58 µM	2.44 µM	0.497 µM	3.55 µM	0.676 µM	–	0.301 µM	1.96 µM	0.357 µM	2.96 µM	0.228 µM	> 33 µM
CC[N+](CC)(CC)CCCn1c2c(c3ccccc3c1=O)C(=O)c1ccccc1-2	4.74 µM	> 100 µM	–	–	98.1 µM	> 100 µM	9.13 µM	69.1 µM	55.3 µM	> 100 µM	3.74 µM	30.9 µM	2.99 µM	23.6 µM
O=C([CH-]C(=O)c1ccccc1)c1ccccc1.O=C([CH-]C(=O)c1ccccc1)c1ccccc1.[Nd+3].[OH-].[OH3+]	6.27 µM	49.6 µM	–	–	–	–	–	–	16.4 µM	> 100 µM	13.6 µM	40.9 µM	–	–
